Reference: patent US5817297A, “Composition for enhancing oral hygiene” (LG Chemical Ltd., priority 1996, dated 1998)

Assays:
[1] = system: Streptococcus mutans 10449, type C; assay: Inhibition of plaque formation on glass bar by Streptococcus mutans, Experiment 2; format: cell-based; conditions: for plaque formation(%): 1440 min
Experimental: The inhibition effect of ursodesoxycholic acid, chenodesoxycholic acid and triclosan as the effective components of the composition for enhancing oral hygiene according to the present invention on plaque formation was determined and compared according to the following method.
Ursodesoxycholic acid, Chenodesoxycholic aicd, Triclosan.
1 Test strain, Streptococcus mutans 10449, type C was cultured in brain-heart infusion agar medium and then the cultured strain was inoculated on THB(Todd Hewitt Broth) and cultured at 37° C. for 15 hours.
2 The small glass bar was sterilized and then weighed.
3 This glass bar was introduced into the test tube in which the medium containing sucrose is included. The test substance was added at a given concentration to the test tube and then the test microorganism strain was added thereto. The test tube was cultured at 37° C. for 24 hours.
4 After incubation, the glass bar was carefully removed from the test tube and dried at 37° C. for one day. The final weight of the glass bar was measured. The control group was treated in the same manner as the test group except that the test substance is not added.
5 From the measured result, the plaque formation percentage was calculated according to the following equation: [formula]

collagenase [2] = assay: Inhibition of collagenase activity (azocol digestion, absorbance at 540 nm), Experiment 1; format: biochemical; conditions: for Absorbance (540 nm) / Enzyme activity inhibition (%): Table 5; for activity for inactivating collagenase / inhibition effect at the concentration in excess of 0.6% / inhibition effect on collagenase activity in comparison with extracts of other medicinal herbs: in words
gingivitis [3] = assay: Gingivitis index of test subjects using dentifrice of Table 1, Experiment 3; format: in vivo, human; conditions: for effect of alleviating gingivitis / effect on gingivitis in combination with bamboo salt, the extract of medicinal herbs, etc.: dentifrice, in words
Experimental: (§1) The effect of inhibiting plaque formation and gingivitis was tested using the dentifrice compositions of Examples 1 to 6 and Comparative Examples 1 to 4 described in Table 1 according to the following method. The results are described in the following Tables 7 and 8.
(§2) 1 The test subjects were selected and were given the explanation of oral medical examination.
(§3) 2 The test subjects were divided such that the group for each composition of examples and comparative examples includes 10 subjects, and then had the education of correct brushing method. The test subject were subjected to the oral medical examination to measure the plaque index (Quigley-Hein Index modified by Turesky) and the gingivitis index (Gingival Bleeding Index, Loe-Silness Index).
(§4) 3 Before the test, all the test subjects were subjected to teeth scaling.
(§5) 4 The placebo dentifrice(calcium monohydrogenphosphate 40%, glycerin 25%, sodium laurylsulfate 1.5%, sodium saccharin 0.1%, paraoxybenzoic acid ester 0.1%, sodium carboxymethylcellulose 1%, purified water added to 100%) was used for 2 weeks and then the oral medical exmamination was conducted again to measure the plaque index and the gingivitis index as the initial value.
(§6) 5 The test subjects were allowed to brush using the dentifrice of examples and comparative examples for 4 weeks, three times for one day, according to the same method as usual. The oral medical examination was conducted at the second and fourth weeks to determine the plaque index score and the gingivitis index score.
(§7) 6 The score obtained after 4 weeks was compared with the initial value and examined for the statistic significance using T-test.

plaque formation [4] = assay: Plaque index of test subjects using oral rinse of Table 2, Experiment 4; format: in vivo, human; conditions: in words
Text: as §2, §3, §4, §5, §6
6 The score obtained after 4 weeks was compared with the initial value and examined for the statistic significance using T-test. […]

plaque formation [5] = assay: Plaque index of test subjects using dentifrice of Table 1, Experiment 3; format: in vivo, human; conditions: in words; for effect on the plaque formation: dentifrice
Experimental: as §1, §2, §3, §4, §5, §6, §7

collagenase [6] = assay: Inhibition of collagenase activity (azocol digestion, absorbance at 540 nm), Experiment 1; format: biochemical; conditions: Table 4; final concentration 0.02%, 10% ethanol solution
Experimental: The inhibition effects on collagenase activity of various substances including ursodesoxycholic acid and chenodesoxycholic acid as the effective components of the composition for enhancing oral hygiene according to the present invention were determined and compared according to the following method.
ursodesoxycholic aicd, chenodesoxycholic acid, fel tauri salt, bamboo salt, common salt, Machili cortex, Phellodendri cortex, Platycodi radix, Schizonepetae herba, Glycyrrhizae radix, Angelicae gigantis radix, Chamomillae flos, Myrrha, Theae folium, Taraxaci radix cum Herba, Lonicerae flos, Ciniicifugae rhizoma.
1 100 μl of 2% azocol solution was added to the test tube and then 190 μl of buffer solution (0.05M Tris-HCl, 1 mM CaCl2, pH 7.8) was added thereto.
2 To the resulting solution as prepared above was added to each test substance in the following concentration:
Ursodesoxycholic acid (10% ethanol solution) or chenodesoxycholic acid (10% ethanol solution) was added to the final concentration of 0.02%;
Fel tauri salt, bamboo salt or common salt was dissolved in the buffer solution as mentioned above and then added to the final concentration of 2.0%;
Machili cortex, Phellodendri cortex, Platycodi radix, Schizonepetae herba, Glycyrrhizae radix, Angelicae gigantis radix, Chamomillae flos, Myrrha, Theae folium, Taraxaci radix cum Herba, Lonicerae flos or Cimicifugae rhizoma was added in the form of 30% ethanol extract to the final concentration of 0.1%.
3 100 μl of collagenase having 100 ppm concentration was added and then the mixture was maintained in a 37° C. incubator for 18 hours. (Separately, the standard activity curve was prepared from 10, 100, 200 μl of collagenase.)
4 The test tubes were centrifuged for 5 minutes.
5 The supernatant was separated from the test tube and then added to the cell. The absorbance at 540 nm was measured by spectrophotometer and then the activity of the test group was determined from the standard activity curve.

gingivitis [7] = assay: Gingivitis index of test subjects using oral rinse of Table 2, Experiment 4; format: in vivo, human; conditions: in words
Text: as §2, §3, §4, §5, §6, §7
The effect of inhibiting plaque formation and gingivitis was tested using the oral rinse compositions of Examples 7 to 12 and Comparative Examples 5 to 8 described in Table 2 according to the same method as Experiment 3. The results are described in the following Tables 9 and 10.

## Oc1cc(Cl)ccc1Oc1ccc(Cl)cc1Cl [Triclosan, triclosan]
[1]; triclosan 0.0010
  pH: 4.3
  plaque formation(%): 100.0%
[1]; triclosan 0.0050
  pH: 4.3
  plaque formation(%): 100.0%
[1]; triclosan 0.0100
  pH: 4.3
  plaque formation(%): 100.0%
[1]; triclosan 0.0300
  pH: 4.5
  plaque formation(%): 50.0%
[1]; triclosan 0.0500
  pH: 7.5
  plaque formation(%): 0.0%

## C[C@H](CCC(=O)O)[C@H]1CC[C@H]2[C@@H]3[C@H](O)C[C@@H]4C[C@H](O)CC[C@]4(C)[C@H]3CC[C@]12C [Chenodesoxycholic acid, chenodesoxycholic acid]
Collagenase [2]
  concentration at which inhibition effect on collagenase begins: 0.01%
  concentration at which inhibition effect on collagenase reaches the maximum level: 0.6%
  activity for inactivating collagenase: good activity for inactivating collagenase
  inhibition effect at the concentration in excess of 0.6%: not significantly increased
  inhibition effect on collagenase activity in comparison with extracts of other medicinal herbs: superior inhibition effect on collagenase activity
Collagenase [2]; content 0.001%
  Absorbance (540 nm): 0.324
  Enzyme activity inhibition (%): -1.20%
Collagenase [2]; content 0.010%
  Absorbance (540 nm): 0.315
  Enzyme activity inhibition (%): 6.55%
Collagenase [2]; content 0.020%
  Absorbance (540 nm): 0.260
  Enzyme activity inhibition (%): 39.23%
Collagenase [2]; content 0.050%
  Absorbance (540 nm): 0.230
  Enzyme activity inhibition (%): 52.15%
Collagenase [2]; content 0.100%
  Absorbance (540 nm): 0.180
  Enzyme activity inhibition (%): 67.87%
Collagenase [2]; content 0.150%
  Absorbance (540 nm): 0.052
  Enzyme activity inhibition (%): 88.41%
Collagenase [2]; content 0.200%
  Absorbance (540 nm): 0.007
  Enzyme activity inhibition (%): 91.91%
Collagenase [2]; content 0.600%
  Absorbance (540 nm): 0.002
  Enzyme activity inhibition (%): 92.22%
Collagenase [2]; content 1.000%
  Absorbance (540 nm): 0.002
  Enzyme activity inhibition (%): 92.22%
Collagenase [2]; content 2.000%
  Absorbance (540 nm): 0.002
  Enzyme activity inhibition (%): 92.22%
Gingivitis [3]
  effect of alleviating gingivitis: good effect of alleviating gingivitis
  effect on gingivitis in combination with bamboo salt, the extract of medicinal herbs, etc.: synergistic alleviating effect on gingivitis
Plaque formation [4]
  effect on the plaque formation: no significant effect on the plaque formation
Plaque formation [5]
  effect on the plaque formation: no significant effect on the plaque formation
  plaque effect in combination with the extract of other medicinal herbs: do not show any synergistic and antagonistic effect
Collagenase [6]
  Absorbance (540 nm): 0.260
  Enzyme activity inhibition (%): 39.23%
Gingivitis [7]
  alleviating effect for gingivitis: good alleviating effect for gingivitis
  effect on gingivitis in combination with bamboo salt, the extract of medicinal herbs, etc.: synergistic allevia- ting effect on gingivitis
[1]; 0.100 (unit not given)
  pH: 4.2
  plaque formation(%): 100.0%

## C[C@H](CCC(=O)O)[C@H]1CC[C@H]2[C@@H]3[C@@H](O)C[C@@H]4C[C@H](O)CC[C@]4(C)[C@H]3CC[C@]12C [Ursodesoxycholic acid, ursodesoxycholic acid]
Collagenase [2]
  concentration at which inhibition effect on collagenase begins: 0.01%
  concentration at which inhibition effect on collagenase reaches the maximum level: 0.6%
  activity for inactivating collagenase: good activity for inactivating collagenase
  inhibition effect at the concentration in excess of 0.6%: not significantly increased
  inhibition effect on collagenase activity in comparison with extracts of other medicinal herbs: superior inhibition effect on collagenase activity
Collagenase [2]; content 0.001%
  Absorbance (540 nm): 0.326
  Enzyme activity inhibition (%): -2.82%
Collagenase [2]; content 0.010%
  Absorbance (540 nm): 0.305
  Enzyme activity inhibition (%): 13.02%
Collagenase [2]; content 0.020%
  Absorbance (540 nm): 0.243
  Enzyme activity inhibition (%): 45.64%
Collagenase [2]; content 0.050%
  Absorbance (540 nm): 0.215
  Enzyme activity inhibition (%): 57.54%
Collagenase [2]; content 0.100%
  Absorbance (540 nm): 0.166
  Enzyme activity inhibition (%): 71.26%
Collagenase [2]; content 0.150%
  Absorbance (540 nm): 0.050
  Enzyme activity inhibition (%): 88.60%
Collagenase [2]; content 0.200%
  Absorbance (540 nm): 0.005
  Enzyme activity inhibition (%): 92.03%
Collagenase [2]; content 0.600%
  Absorbance (540 nm): 0.002
  Enzyme activity inhibition (%): 92.22%
Collagenase [2]; content 1.000%
  Absorbance (540 nm): 0.000
  Enzyme activity inhibition (%): 92.34%
Collagenase [2]; content 2.000%
  Absorbance (540 nm): 0.000
  Enzyme activity inhibition (%): 92.34%
Gingivitis [3]; Comparative Example 2, in words
  effect of alleviating gingivitis at the concentration in excess of 1.0 wt %: does not show any increase of the effect in proportion to the increase of the concentration
Gingivitis [3]
  effect of alleviating gingivitis: good effect of alleviating gingivitis
  effect on gingivitis in combination with bamboo salt, the extract of medicinal herbs, etc.: synergistic alleviating effect on gingivitis
Gingivitis [3]; human, in vivo
  concentration at which the effect of alleviating gingivitis begins: 0.01 wt %
  concentration with a significant effect in comparison with Comparative Example 4: ≥ 0.02 wt %
Plaque formation [4]
  effect on the plaque formation: no significant effect on the plaque formation
Plaque formation [5]
  effect on the plaque formation: no significant effect on the plaque formation
  plaque effect in combination with the extract of other medicinal herbs: do not show any synergistic and antagonistic effect
Collagenase [6]
  Absorbance (540 nm): 0.243
  Enzyme activity inhibition (%): 45.64%
Gingivitis [7]
  alleviating effect for gingivitis: good alleviating effect for gingivitis
  effect on gingivitis in combination with bamboo salt, the extract of medicinal herbs, etc.: synergistic allevia- ting effect on gingivitis
[1]; 0.100 (unit not given)
  pH: 4.2
  plaque formation(%): 100.0%
